Experimental data reported in patent US7504406B2, “Derivatives of pyrido[2,3-d]pyrimidine, the preparation thereof, and the therapeutic application of the same” (Sanofi-Aventis, priority 2005, dated 2009).

Tests used:
Assay type in all cases: cell-based
[1] = test system: K-562 line; experiment: MTS cell proliferation and viability test, K-562 line; details: Homo sapiens, K562, K-562 leukaemia line, 72 hours of incubation, read-out: IC50 (50% loss of cell proliferation and cell viability)
Method: The compounds of formula (I) according to the present invention were tested in vitro on a panel of tumour lines of human origin, originating: • from breast cancer: MDA-MB231 (American Type culture collection, Rockville, Md., USA, ATCC-HTB26), MDA-A1 or MDA-ADR (called multi-drug resistant MDR line, and described by E. Collomb et al., in Cytometry, 12(1):15-25, 1991), and MCF7 (ATCC-HTB22), • from prostate cancer: DU145 (ATCC-HTB81) and PC3 (ATCC-CRL1435), • from colon cancer: HCT116 (ATCC-CCL247) and HCT15 (ATCC-CCL225), • from lung cancer: H460 (described by Carmichael in Cancer Research 47 (4):936-942, 1987 and provided by the National Cancer Institute, Frederick Cancer Research and Development Center, Frederick, Md., USA), • from glioblastoma: SF268 (described by Westphal in Biochemical & Biophysical Research Communications 132 (1): 284-289, 1985 and provided by the National Cancer Institute, Frederick Cancer Research and Development Center, Frederick, Md., USA), • from leukaemia: CMLT1 (described by Kuriyama et al. in Blood, 74: 1989, 1381-1387, by Soda et al. in British Journal of Haematology, 59: 1985, 671-679 and by Drexler, in Leukemia Research, 18: 1994, 919-927 and provided by the company DSMZ (Deutsche Sammlung von Mikroorganismen und Zellkulturen GmbH) Mascheroder Weg 1b, 38124 Braunschweig, Germany), K-562 (described by Lozzio et al., J Natl Cancer Inst 50: 535 (1973), by Lozzio et al., Blood 45: 321 (1975), and provided by DSMZ No. ACC 10), KG-1a (described by Koeffler et al., Blood 56: 265 (1980), and provided by DSMZ No. ACC 421), and Kasumi-1 (described by Asou et al., Blood 77: 2031 (1991), and provided by DSMZ No. ACC 220).
The cell proliferation and viability were determined in a test using 3-(4,5-dimethylthiazol-2-yl)-5-(3-carboxymethoxyphenyl)-2-(4-sulphophenyl)-2H-tetrazolium (MTS) according to Fujishita T. et al., Oncology, 2003, 64 (4), 399-406. In this test, the mitochondrial ability of the live cells to convert MTS to a coloured compound is measured after 72 hours of incubation of a compound of formula (I) according to the invention. The concentrations of compound according to the invention which result in a 50% loss of cell proliferation and cell viability (IC50) are between 1 nM and 10 μM, depending on the tumor line and the compound tested. For example, compound No. 1 has an IC50 of 40 nM on the K-562 line, an IC50 of 50 nM on the KG-1a line and an IC50 of 40 nM on the Kasumi-1 line.

[2] = test system: KG-1a line; experiment: MTS cell proliferation and viability test, KG-1a line; details: Homo sapiens, KG-1a leukaemia line, 72 hours of incubation, read-out: IC50 (50% loss of cell proliferation and cell viability)
Method: […]
(§1) The cell proliferation and viability were determined in a test using 3-(4,5-dimethylthiazol-2-yl)-5-(3-carboxymethoxyphenyl)-2-(4-sulphophenyl)-2H-tetrazolium (MTS) according to Fujishita T. et al., Oncology, 2003, 64 (4), 399-406. In this test, the mitochondrial ability of the live cells to convert MTS to a coloured compound is measured after 72 hours of incubation of a compound of formula (I) according to the invention. […]

[3] = test system: Kasumi-1 line; experiment: MTS cell proliferation and viability test, Kasumi-1 line; details: Homo sapiens, Kasumi-1 leukaemia line, 72 hours of incubation, read-out: IC50 (50% loss of cell proliferation and cell viability)
Method: […]
as §1

[4] = test system: SF268; experiment: MTS cell proliferation and viability test, SF268 line; details: Homo sapiens, SF-268, SF268 glioblastoma line, 72 hours of incubation, read-out: IC50 (50% loss of cell proliferation and cell viability)
Method: […]
as §1

Compound | IC50 [1] [nM] | IC50 [2] [nM] | IC50 [3] [nM] | IC50 [4] [nM]
CC(C)(C)NC(=O)Nc1nc2nc(Nc3ccc4nsnc4c3)ncc2cc1-c1c(Cl)cccc1Cl [Compound No. 1, N-[2-(2,1,3-benzothiadiazol-5-ylamino)-6-(2,6-dichlorophenyl)pyrido[2,3-d]pyrimidin-7-yl]-N′-(1,1-dimethylethyl)urea] | 40 | 50 | 40 | –
CC(C)(C)NC(=O)Nc1nc2nc(Nc3ccc4oc(CN)nc4c3)ncc2cc1-c1c(Cl)cccc1Cl [Compound No. 7, N-[2-[[2-(aminomethyl)-5-benzoxazolyl]amino]-6-(2,6-dichlorophenyl)pyrido[2,3-d]pyrimidin-7-yl]-N′-(1,1-dimethylethyl)urea] | – | – | – | 43
CCNC(=O)Nc1nc2nc(Nc3ccc4nsnc4c3)ncc2cc1-c1c(Cl)cccc1Cl [Compound No. 13, N-[2-(2,1,3-benzothiadiazol-5-ylamino)-6-(2,6-dichlorophenyl)pyrido[2,3-d]pyrimidin-7-yl]-N′-ethylurea] | 74 | – | – | –

Now from value to compound, other results behind:

IC50 [1] [nM] | Compound | IC50 [2] [nM] | IC50 [3] [nM] | IC50 [4] [nM]
5 | CCN(CC)Cc1cc2cc(Nc3ncc4cc(-c5c(Cl)cccc5Cl)c(NC(=O)NC(C)(C)C)nc4n3)ccc2o1 [Compound No. 5, N-[6-(2,6-dichlorophenyl)-2-[[2-[(diethylamino)methyl]-5-benzofuranyl]amino]pyrido[2,3-d]pyrimidin-7-yl]-N′-(1,1-dimethylethyl)urea] | – | – | –
19 | CC(C)(C)NC(=O)Nc1nc2nc(Nc3ccc4ncnn4c3)ncc2cc1-c1c(Cl)cccc1Cl [Compound No. 9, N-[6-(2,6-dichlorophenyl)-2-([1,2,4]triazolo[1,5-a]pyridin-6-ylamino)pyrido[2,3-d]pyrimidin-7-yl]-N′-(1,1-dimethylethyl)urea] | – | – | –
